Reference: patent publication US10745416B2, “Macrocyclic compounds for treating disease” (Turning Point Therapeutics, Inc., priority 2017, dated 2020)

Experiments:
Src = molecular target: T1, Src (Homo sapiens, UniProt P12931); assay: Biochemical kinase assay (Reaction Biology, 33P ATP); conditions: 10 μM ATP
T1 construct: purchased Reaction Biology Corporation (assay run at the CRO)
Description: (§1) The biochemical kinase assay was performed at Reaction Biology Corporation (www.reactionbiology.com, Malvern, Pa.) following the procedures described in the reference (Anastassiadis T, et al Nat Biotechnol. 2011, 29, 1039). Specific kinase/substrate pairs along with required cofactors were prepared in reaction buffer; 20 mM Hepes pH 7.5, 10 mM MgCl2, 1 mM EGTA, 0.02% Brij35, 0.02 mg/ml BSA, 0.1 mM Na3VO4, 2 mM DTIT, 1% DMSO. Compounds were delivered into the reaction, followed ˜20 minutes later by addition of a mixture of ATP (Sigma, St. Louis Mo.) and ^33P ATP (Perkin Elmer, Waltham Mass.) to a final concentration of 10 μM. Reactions were carried out at room temperature for 120 min, followed by spotting of the reactions onto P81 ion exchange filter paper (Whatman Inc., Piscataway, N.J.). Unbound phosphate was removed by extensive washing of filters in 0.75% phosphoric acid. […] IC50 values and curve fits were obtained using Prism (GraphPad Software).

RET (S891A) = molecular target: T2, RET (S891A) (Homo sapiens, UniProt P07949, S891A); assay: as above; conditions: 10 μM ATP
T2 construct: purchased Reaction Biology Corporation (assay run at the CRO)
Description: as §1

HCK = molecular target: T3, HCK (Homo sapiens, UniProt P08631); assay: as above; conditions: 10 μM ATP
T3 construct: purchased Reaction Biology Corporation (assay run at the CRO)
Description: as §1

RET (S904A) = molecular target: T4, RET (S904A) (Homo sapiens, UniProt P07949, S904A); assay: as above; conditions: 10 μM ATP
T4 construct: purchased Reaction Biology Corporation (assay run at the CRO)
Description: as §1

LYN = molecular target: T5, LYN (Homo sapiens, UniProt P07948); assay: as above; conditions: 10 μM ATP
T5 construct: purchased Reaction Biology Corporation (assay run at the CRO)
Description: as §1

RET (G691S) = molecular target: T6, RET (G691S) (Homo sapiens, UniProt P07949, G691S); assay: as above; conditions: 10 μM ATP
T6 construct: purchased Reaction Biology Corporation (assay run at the CRO)
Description: as §1

RET-CCDC6 (PTC1) = molecular target: T7, RET-CCDC6 (PTC1) (Homo sapiens, UniProt P07949); assay: as above; conditions: 10 μM ATP
T7 construct: fusion transcripts composed of the 3′ end of RET kinase domain and the 5′ end of separate partner genes; CCDC6 N-terminal part (fusion partner); purchased Reaction Biology Corporation (assay run at the CRO); the other entry of the earlier key: CCDC6 (Q16204, Coiled-coil domain-containing protein 6)
Description: as §1

RET (Y791F) = molecular target: T8, RET (Y791F) (Homo sapiens, UniProt P07949, Y791F); assay: as above; conditions: 10 μM ATP
T8 construct: purchased Reaction Biology Corporation (assay run at the CRO)
Description: as §1

RET-PRKAR1A (PTC2) = molecular target: T9, RET-PRKAR1A (PTC2) (Homo sapiens, UniProt P07949); assay: as above; conditions: 10 μM ATP
T9 construct: fusion transcripts composed of the 3′ end of RET kinase domain and the 5′ end of separate partner genes; PRKAR1A N-terminal part (fusion partner); purchased Reaction Biology Corporation (assay run at the CRO); the other entry of the earlier key: PRKAR1A (P10644, cAMP-dependent protein kinase type I-alpha regulatory subunit)
Description: as §1

RET (V778I) = molecular target: T10, RET (V778I) (Homo sapiens, UniProt P07949, V778I); assay: as above; conditions: 10 μM ATP
T10 construct: purchased Reaction Biology Corporation (assay run at the CRO)
Description: as §1

RET (L790F) = molecular target: T11, RET (L790F) (Homo sapiens, UniProt P07949, L790F); assay: as above; conditions: 10 μM ATP
T11 construct: purchased Reaction Biology Corporation (assay run at the CRO)
Description: as §1

RET (S904F) = molecular target: T12, RET (S904F) (Homo sapiens, UniProt P07949, S904F); assay: as above; conditions: 10 μM ATP
T12 construct: purchased Reaction Biology Corporation (assay run at the CRO)
Description: as §1

RET (R813Q) = molecular target: T13, RET (R813Q) (Homo sapiens, UniProt P07949, R813Q); assay: as above; conditions: 10 μM ATP
T13 construct: purchased Reaction Biology Corporation (assay run at the CRO)
Description: as §1

FYN = molecular target: T14, FYN (Homo sapiens, UniProt P06241); assay: as above; conditions: 10 μM ATP
T14 construct: purchased Reaction Biology Corporation (assay run at the CRO)
Description: as §1

TT cell (RET C634W) = assay: Cell proliferation assay (CellTiter-Glo, 72 hours); assay type: cell-based; conditions: Homo sapiens, anti-cell proliferation
Description: Human medulla thyroid carcinoma cell line TT (containing RET […] mutation) and acute myelogenous cell line KG-1 were purchased from ATCC. Human colon cancer cell line KMI2 (containing TPM3-TRKA) was obtained from NCI.
Two thousand cells per well were seeded in 384 well white plate for 24 hrs, and then treated with compounds for 72 hours (37° C., 5% CO2). Cell proliferation was measured using CellTiter-Glo luciferase-based ATP detection assay (Promega) following the manufactures's protocol. IC50 determinations were performed using GraphPad Prism software (GraphPad, Inc., San Diego, Calif.).

T3 sequence (P08631 whole entry): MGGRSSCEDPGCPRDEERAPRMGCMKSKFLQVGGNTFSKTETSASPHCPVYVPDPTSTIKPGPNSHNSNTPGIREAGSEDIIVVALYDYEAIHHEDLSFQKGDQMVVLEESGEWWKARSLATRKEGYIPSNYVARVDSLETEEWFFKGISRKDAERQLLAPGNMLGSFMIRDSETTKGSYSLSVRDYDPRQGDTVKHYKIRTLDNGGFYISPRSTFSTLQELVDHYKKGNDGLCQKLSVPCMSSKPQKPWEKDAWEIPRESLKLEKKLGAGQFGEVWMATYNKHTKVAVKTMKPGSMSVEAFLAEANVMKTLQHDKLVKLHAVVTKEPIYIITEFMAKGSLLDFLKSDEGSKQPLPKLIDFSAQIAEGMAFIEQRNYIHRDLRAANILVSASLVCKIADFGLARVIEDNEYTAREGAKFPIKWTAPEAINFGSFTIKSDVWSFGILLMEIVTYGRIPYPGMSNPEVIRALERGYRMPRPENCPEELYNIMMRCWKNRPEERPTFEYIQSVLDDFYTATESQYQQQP
T2 sequence (P07949 29-1114 S891A): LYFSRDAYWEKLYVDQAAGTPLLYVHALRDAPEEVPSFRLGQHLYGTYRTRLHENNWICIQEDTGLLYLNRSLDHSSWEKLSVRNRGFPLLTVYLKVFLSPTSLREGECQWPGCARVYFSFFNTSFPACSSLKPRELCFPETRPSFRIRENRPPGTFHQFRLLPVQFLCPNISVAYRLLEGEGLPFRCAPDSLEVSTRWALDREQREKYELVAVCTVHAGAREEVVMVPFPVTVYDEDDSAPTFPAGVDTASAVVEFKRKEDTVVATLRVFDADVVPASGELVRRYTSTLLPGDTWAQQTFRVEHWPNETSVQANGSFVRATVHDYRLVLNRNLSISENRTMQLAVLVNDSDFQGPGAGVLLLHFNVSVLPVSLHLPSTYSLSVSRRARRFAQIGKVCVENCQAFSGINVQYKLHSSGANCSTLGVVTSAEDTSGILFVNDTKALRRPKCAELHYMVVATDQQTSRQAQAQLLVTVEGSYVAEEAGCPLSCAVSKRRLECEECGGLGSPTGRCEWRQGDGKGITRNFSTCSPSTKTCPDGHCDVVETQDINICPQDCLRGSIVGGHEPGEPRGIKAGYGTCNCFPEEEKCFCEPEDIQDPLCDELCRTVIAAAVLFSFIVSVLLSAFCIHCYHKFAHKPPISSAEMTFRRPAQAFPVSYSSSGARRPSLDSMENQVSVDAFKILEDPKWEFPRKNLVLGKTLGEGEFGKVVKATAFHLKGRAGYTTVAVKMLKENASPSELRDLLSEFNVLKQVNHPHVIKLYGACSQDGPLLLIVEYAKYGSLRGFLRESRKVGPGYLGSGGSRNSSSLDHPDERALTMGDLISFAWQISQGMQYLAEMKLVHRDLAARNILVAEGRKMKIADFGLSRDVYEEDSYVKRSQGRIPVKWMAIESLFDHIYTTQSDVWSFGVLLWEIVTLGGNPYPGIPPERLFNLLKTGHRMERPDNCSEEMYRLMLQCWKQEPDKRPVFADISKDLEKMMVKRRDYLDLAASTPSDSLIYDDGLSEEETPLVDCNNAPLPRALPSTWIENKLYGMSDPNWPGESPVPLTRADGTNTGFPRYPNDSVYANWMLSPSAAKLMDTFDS
T7 sequence (P07949 with tags, fused parts or gaps): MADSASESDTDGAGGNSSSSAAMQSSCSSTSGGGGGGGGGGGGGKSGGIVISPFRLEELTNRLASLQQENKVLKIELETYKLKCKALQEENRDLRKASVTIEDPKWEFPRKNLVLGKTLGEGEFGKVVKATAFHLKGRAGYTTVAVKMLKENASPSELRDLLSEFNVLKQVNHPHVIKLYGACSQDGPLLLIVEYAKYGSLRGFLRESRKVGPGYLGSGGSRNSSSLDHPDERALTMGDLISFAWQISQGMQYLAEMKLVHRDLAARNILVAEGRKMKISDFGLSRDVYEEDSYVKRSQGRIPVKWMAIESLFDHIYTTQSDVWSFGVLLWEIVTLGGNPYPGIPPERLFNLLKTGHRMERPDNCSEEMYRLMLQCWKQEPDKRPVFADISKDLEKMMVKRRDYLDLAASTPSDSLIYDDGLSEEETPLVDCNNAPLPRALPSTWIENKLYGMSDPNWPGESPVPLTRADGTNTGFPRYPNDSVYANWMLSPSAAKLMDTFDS
T1 sequence (P12931 whole entry): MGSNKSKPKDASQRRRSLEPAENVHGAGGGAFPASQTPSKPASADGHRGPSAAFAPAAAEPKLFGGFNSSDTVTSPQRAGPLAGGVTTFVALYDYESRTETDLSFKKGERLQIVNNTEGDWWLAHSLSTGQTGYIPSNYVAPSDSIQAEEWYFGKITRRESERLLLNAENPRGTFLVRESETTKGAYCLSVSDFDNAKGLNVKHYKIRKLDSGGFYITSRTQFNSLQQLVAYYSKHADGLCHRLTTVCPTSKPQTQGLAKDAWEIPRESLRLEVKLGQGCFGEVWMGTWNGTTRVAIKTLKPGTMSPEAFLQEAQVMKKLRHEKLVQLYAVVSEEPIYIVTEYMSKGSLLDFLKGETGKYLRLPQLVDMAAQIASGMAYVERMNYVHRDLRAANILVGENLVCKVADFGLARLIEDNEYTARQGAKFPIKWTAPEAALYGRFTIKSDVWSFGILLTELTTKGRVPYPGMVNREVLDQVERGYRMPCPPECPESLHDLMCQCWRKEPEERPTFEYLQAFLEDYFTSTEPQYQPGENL
T6 sequence (P07949 29-1114 G691S): as the sequence (P07949 29-1114 S891A) above, with G663S, A863S counted along it
T14 sequence (P06241 whole entry): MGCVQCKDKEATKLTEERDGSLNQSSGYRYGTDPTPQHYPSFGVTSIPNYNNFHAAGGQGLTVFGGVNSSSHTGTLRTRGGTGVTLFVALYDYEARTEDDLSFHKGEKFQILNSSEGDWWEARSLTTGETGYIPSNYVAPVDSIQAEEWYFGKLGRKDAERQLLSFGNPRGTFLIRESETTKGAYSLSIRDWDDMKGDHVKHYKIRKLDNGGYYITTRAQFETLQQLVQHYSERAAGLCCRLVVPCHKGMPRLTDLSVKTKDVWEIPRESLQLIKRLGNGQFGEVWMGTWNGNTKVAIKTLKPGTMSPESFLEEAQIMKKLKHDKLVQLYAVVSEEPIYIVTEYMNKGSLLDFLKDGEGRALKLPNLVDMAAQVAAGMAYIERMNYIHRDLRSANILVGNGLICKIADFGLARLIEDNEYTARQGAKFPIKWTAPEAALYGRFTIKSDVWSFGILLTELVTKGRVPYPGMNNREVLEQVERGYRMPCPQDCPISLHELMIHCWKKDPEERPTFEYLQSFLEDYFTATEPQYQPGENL
T4 sequence (P07949 29-1114 S904A): as the sequence (P07949 29-1114 S891A) above, with A863S, S876A counted along it
T11 sequence (P07949 29-1114 L790F): as the sequence (P07949 29-1114 S891A) above, with L762F, A863S counted along it
T12 sequence (P07949 29-1114 S904F): as the sequence (P07949 29-1114 S891A) above, with A863S, S876F counted along it
T8 sequence (P07949 29-1114 Y791F): as the sequence (P07949 29-1114 S891A) above, with Y763F, A863S counted along it
T5 sequence (P07948 whole entry): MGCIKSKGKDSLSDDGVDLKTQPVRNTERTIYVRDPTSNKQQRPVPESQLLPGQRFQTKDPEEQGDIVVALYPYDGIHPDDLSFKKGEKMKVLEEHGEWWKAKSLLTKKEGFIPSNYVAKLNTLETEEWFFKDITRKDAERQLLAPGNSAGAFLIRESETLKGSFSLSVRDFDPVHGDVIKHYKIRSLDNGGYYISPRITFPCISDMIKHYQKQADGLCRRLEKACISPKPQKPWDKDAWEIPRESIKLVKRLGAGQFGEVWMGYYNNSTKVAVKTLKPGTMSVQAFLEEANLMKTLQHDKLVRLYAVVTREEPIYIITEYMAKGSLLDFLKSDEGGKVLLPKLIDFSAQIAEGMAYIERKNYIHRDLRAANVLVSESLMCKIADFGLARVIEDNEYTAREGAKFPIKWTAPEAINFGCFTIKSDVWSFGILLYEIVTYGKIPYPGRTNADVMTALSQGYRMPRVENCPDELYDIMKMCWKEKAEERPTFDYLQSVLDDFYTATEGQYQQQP
T9 sequence (P07949 with tags, fused parts or gaps): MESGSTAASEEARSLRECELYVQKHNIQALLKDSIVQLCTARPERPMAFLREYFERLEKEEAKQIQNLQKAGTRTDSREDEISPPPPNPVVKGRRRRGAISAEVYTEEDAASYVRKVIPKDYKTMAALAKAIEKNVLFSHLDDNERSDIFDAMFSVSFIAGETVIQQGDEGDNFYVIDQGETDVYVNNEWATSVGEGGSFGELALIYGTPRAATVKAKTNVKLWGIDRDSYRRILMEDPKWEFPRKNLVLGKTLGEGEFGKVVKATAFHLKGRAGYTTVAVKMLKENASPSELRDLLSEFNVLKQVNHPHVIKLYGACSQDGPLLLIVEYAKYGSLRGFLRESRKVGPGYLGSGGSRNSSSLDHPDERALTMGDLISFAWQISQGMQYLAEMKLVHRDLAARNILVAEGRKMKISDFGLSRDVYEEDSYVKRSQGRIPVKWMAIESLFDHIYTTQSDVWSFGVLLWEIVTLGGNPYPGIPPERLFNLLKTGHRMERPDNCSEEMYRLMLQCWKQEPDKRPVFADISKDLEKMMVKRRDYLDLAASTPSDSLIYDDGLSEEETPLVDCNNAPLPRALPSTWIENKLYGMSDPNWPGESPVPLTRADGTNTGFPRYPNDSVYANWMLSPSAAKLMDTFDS
T13 sequence (P07949 29-1114 R813Q): as the sequence (P07949 29-1114 S891A) above, with R785Q, A863S counted along it
T10 sequence (P07949 29-1114 V778I): as the sequence (P07949 29-1114 S891A) above, with V750I, A863S counted along it

SMILES	IC50 (Src) [nM]	IC50 (RET (S891A)) [nM]	IC50 (HCK) [nM]	IC50 (RET (S904A)) [nM]	IC50 (LYN) [nM]	IC50 (RET (G691S)) [nM]	IC50 (RET-CCDC6 (PTC1)) [nM]	IC50 (RET (Y791F)) [nM]	IC50 (RET-PRKAR1A (PTC2)) [nM]	IC50 (RET (V778I)) [nM]	IC50 (RET (L790F)) [nM]	IC50 (RET (S904F)) [nM]	IC50 (RET (R813Q)) [nM]	IC50 (FYN) [nM]	IC50 (TT cell (RET C634W)) [pM]
C[C@H]1CNC(=O)c2cnn3cc4c(nc23)N(Cc2cc(F)ccc2O1)[C@@H]1CCC[C@@H]1O4 [Compound 1, (3aR,11S,20aS)-7-fluoro-11-methyl-2,3,3a,12,13,20a-hexahydro-1H,5H-17-19-(metheno)cyclopenta[5,6][1,4] oxazino[3,4-i]pyrazolo[4,3-f][1,4,8,10]benzoxatriacyclotridecin-14(11H)-one]	0.875	0.664	1.95	0.159	1.97	3.01	0.0893	< 0.0508	0.129	< 0.0508	0.12	0.0621	0.341	1.81	< 500
C[C@H]1CNC(=O)c2cnn3cc4c(nc23)N(Cc2cc(F)cnc2O1)[C@@H]1CCC[C@@H]1O4 [Compound 5, (3aR,11S,20aS)-7-fluoro-11-methyl-2,3,3a,12,13,20a-hexahydro-1H,5H-17-19-(metheno)cyclopenta[5,6][1,4] oxazino[3,4-i]pyrazolo[4,3-f]pyrido[3,2-l][1,4,8,10]oxatriazacyclotridecin-14(11H)-one]	1.46	0.303	2.71	1.22	2.03	0.941	1.97	7.95	0.29	0.233	1.31	0.364	2.46	1.94	900
